The values below come from ChEMBL document CHEMBL1909046, “DrugMatrix in vitro pharmacology data”.

The target in one data set is T1, Thromboxane-A synthase (Homo sapiens, UniProt P24557).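 Further: enzyme inhibition assay with PGH2 supplied as substrate; in other assays of this panel Not Active means under 50% inhibition at 10 µM.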
T1 sequence (P24557 whole entry): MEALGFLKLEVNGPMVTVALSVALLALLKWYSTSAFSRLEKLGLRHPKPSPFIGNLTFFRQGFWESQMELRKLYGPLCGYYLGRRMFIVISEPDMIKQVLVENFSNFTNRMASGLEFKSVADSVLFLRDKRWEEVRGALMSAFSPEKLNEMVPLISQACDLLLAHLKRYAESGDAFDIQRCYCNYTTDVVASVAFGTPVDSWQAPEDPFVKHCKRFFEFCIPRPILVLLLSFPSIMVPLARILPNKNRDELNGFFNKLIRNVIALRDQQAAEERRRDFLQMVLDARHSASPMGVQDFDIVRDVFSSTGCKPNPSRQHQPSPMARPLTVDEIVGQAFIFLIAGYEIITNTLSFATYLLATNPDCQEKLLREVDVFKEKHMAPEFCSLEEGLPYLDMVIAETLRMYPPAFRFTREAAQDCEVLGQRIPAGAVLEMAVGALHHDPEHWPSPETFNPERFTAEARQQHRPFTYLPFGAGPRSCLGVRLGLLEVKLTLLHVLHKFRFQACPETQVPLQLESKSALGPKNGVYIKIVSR
As to the kind of experiment: biochemical. Type of data set: tissue-based, Platelet.

Data set [1] has as its target T2, Neuropeptide Y receptor type 2 (Homo sapiens, UniProt P49146). Further: in other assays of this panel Not Active means under 50% inhibition at 10 µM.
T2 sequence (P49146 whole entry): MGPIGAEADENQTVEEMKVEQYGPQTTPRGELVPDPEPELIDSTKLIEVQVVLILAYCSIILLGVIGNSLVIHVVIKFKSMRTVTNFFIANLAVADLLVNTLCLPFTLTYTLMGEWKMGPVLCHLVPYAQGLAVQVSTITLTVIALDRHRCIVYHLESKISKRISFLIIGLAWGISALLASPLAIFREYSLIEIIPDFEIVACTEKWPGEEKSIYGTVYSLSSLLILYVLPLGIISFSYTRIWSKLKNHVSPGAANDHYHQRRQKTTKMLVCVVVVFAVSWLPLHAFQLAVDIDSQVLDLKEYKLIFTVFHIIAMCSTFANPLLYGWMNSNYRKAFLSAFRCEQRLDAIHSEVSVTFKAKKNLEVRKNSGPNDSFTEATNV
Type of data set: cell membranes, Membrane. To be noted: kan-ts.

Data set [2] in a line: DRUGMATRIX: Nicotinic Acetylcholine radioligand binding (ligand: [125I] Epibatidine). Type of data set: cell membranes, Membrane. The conditions noted are these: imr-32; Not Active = under 50% inhibition at 10 µM.
The target in a further data set is T3, Cathepsin G (Homo sapiens, UniProt P08311).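 Further: inhibition of Cathepsin G enzyme activity, tested on an AMC-conjugated peptide substrate; in other assays of this panel Not Active means under 50% inhibition at 10 µM.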
T3 sequence (P08311 whole entry): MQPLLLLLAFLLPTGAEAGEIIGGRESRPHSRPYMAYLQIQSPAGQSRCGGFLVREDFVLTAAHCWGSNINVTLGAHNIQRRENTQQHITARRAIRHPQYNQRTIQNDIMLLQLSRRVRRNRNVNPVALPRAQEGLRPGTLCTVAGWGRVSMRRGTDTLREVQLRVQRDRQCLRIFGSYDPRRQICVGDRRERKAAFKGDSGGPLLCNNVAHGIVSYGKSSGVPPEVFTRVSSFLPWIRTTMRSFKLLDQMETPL
Type of data set: tissue-based. To be noted: neutrophil.

For data set [3], the target named is Protein kinase C alpha type (Homo sapiens, UniProt P17252). Type of data set: cell-based. The conditions noted are these: sf9.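 Further: inhibition of PKCalpha kinase activity measured in an enzyme assay with histone as the phosphorylation substrate; in other assays of this panel Not Active means under 50% inhibition at 10 µM.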
Data set [4] addresses Epidermal growth factor receptor (Homo sapiens, UniProt P00533). As to the kind of experiment: DRUGMATRIX: Protein Tyrosine Kinase, EGF Receptor enzyme inhibition (substrate: Poly(Glu:Tyr)). Type of data set: cell-based, Insect cells. To be noted: Not Active = under 50% inhibition at 10 µM.
Data set [5] has as its target Voltage-gated inwardly rectifying potassium channel KCNH2 (Homo sapiens, UniProt Q12809). The conditions noted are these: hek293. Further: in other assays of this panel Not Active means under 50% inhibition at 10 µM.
In the next data set the target is Cytochrome P450 2D6 (Homo sapiens, UniProt P10635). The conditions noted are these: bti-tn-5b1-4. Further: in other assays of this panel Not Active means under 50% inhibition at 10 µM.
Chain of Cytochrome P450 2D6 (P10635 whole entry): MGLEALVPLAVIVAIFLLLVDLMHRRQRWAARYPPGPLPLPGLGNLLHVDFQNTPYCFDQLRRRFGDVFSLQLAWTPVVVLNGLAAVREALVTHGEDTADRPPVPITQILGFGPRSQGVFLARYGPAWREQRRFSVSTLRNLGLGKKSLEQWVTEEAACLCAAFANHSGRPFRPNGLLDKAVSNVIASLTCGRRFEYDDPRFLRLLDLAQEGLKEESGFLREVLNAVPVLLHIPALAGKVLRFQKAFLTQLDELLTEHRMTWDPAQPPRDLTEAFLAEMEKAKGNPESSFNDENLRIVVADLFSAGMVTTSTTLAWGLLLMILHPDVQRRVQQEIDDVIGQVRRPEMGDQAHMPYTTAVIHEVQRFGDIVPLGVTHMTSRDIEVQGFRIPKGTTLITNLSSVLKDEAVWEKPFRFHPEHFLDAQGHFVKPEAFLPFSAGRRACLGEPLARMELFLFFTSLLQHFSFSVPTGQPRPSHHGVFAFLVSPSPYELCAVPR

Chain of Epidermal growth factor receptor (P00533 whole entry): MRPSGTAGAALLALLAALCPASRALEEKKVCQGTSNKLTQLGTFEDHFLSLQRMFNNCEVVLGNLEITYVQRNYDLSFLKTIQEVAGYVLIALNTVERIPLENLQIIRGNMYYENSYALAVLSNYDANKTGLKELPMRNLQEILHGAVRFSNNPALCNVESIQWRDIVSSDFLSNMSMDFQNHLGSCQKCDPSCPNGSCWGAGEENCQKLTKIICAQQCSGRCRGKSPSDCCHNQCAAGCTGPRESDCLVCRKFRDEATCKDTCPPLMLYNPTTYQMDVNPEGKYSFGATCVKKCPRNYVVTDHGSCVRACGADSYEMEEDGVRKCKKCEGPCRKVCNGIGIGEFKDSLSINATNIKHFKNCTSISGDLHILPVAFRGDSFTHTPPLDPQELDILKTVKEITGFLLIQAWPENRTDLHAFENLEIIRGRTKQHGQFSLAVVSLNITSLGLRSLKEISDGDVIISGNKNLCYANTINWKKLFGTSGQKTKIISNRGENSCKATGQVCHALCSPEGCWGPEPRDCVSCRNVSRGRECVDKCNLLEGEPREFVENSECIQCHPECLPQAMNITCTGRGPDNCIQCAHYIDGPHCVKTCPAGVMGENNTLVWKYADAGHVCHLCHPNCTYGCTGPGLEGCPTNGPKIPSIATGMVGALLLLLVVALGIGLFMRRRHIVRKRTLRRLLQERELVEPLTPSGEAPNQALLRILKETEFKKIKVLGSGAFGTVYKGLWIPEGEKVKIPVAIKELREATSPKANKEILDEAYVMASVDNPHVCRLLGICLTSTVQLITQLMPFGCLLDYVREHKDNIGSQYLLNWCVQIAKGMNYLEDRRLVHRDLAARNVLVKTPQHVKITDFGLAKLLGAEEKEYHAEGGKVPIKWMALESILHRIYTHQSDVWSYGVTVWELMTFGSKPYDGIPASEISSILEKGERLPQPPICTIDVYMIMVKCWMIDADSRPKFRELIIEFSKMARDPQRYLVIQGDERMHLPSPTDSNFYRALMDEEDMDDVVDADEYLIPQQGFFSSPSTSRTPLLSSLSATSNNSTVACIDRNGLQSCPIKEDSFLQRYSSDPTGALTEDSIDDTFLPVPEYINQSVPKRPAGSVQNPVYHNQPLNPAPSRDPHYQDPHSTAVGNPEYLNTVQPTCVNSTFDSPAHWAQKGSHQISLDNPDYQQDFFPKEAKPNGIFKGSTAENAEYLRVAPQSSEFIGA
Chain of Voltage-gated inwardly rectifying potassium channel KCNH2 (Q12809 whole entry): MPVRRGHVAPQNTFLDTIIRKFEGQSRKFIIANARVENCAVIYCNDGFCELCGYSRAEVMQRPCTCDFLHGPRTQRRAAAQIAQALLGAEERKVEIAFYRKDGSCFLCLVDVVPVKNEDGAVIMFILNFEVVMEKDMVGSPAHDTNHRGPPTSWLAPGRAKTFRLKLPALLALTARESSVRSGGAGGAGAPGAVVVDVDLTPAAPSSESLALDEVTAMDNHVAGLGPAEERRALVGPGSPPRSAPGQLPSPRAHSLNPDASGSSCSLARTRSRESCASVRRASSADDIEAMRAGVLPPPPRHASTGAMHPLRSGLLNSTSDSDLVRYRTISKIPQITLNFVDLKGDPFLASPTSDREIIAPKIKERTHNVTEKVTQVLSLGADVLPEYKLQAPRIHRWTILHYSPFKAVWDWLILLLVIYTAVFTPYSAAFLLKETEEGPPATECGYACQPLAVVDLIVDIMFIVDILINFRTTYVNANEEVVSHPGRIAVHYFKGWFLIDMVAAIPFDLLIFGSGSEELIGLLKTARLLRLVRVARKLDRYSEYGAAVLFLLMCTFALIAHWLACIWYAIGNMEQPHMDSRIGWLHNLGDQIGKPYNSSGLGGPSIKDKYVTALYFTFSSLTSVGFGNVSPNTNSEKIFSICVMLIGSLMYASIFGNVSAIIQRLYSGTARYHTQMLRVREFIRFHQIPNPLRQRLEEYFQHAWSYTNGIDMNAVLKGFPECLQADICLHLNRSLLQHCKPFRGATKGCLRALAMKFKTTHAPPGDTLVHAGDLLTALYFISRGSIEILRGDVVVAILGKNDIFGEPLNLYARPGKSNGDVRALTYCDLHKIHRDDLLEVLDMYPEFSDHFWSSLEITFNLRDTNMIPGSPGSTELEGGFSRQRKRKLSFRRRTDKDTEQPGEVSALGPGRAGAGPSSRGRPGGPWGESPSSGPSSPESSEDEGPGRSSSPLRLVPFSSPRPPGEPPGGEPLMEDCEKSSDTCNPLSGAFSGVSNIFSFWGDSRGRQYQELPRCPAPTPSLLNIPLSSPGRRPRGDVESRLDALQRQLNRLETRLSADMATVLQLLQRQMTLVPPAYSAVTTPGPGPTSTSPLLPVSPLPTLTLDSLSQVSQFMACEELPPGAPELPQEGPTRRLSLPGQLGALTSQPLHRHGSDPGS

Take `CCOc1nc2cccc(C(=O)O)c2n1Cc1ccc(-c2ccccc2-c2nnn[nH]2)cc1`: the IC50 at Thromboxane-A synthase (read-out: IC50) was 3.06 µM; in data set [1] it was “Not Active”; in data set [2], “Not Active”; against Cathepsin G it was “Not Active”; in data set [3] it was “Not Active”; in data set [4] (read-out: IC50), 3.28 µM. Further, the IC50 entry in data set [5] was “Not Active”. Further, the Ki result in data set [2] and in data set [5] was “Not Active” each time.

On to `CC[C@H]1[C@@H]2C[C@H]3[C@@H]4N(C)c5ccccc5[C@]45C[C@@H]([C@@H]2[C@H]5O)N3[C@@H]1O` [AJMALINE], for which the IC50 result (against Thromboxane-A synthase (platelet); in data set [1]; in data set [2]; at Cathepsin G; in data set [3]; in data set [4] (insect cells)) was “Not Active” throughout. Besides, in data set [5], the IC50 result is given as “Not Active”. Also, the Ki entry in data set [2] and in data set [5] was “Not Active” in each case.

On to `NC12CC3CC(CC(C3)C1)C2` [AMANTADINE], for which the IC50 result (against Thromboxane-A synthase (platelet); in data set [1]; in data set [2]; at Cathepsin G; in data set [3]; in data set [4] (insect cells)) was “Not Active” each time. Further, in data set [5], the 50% inhibitory concentration (IC50) entry was “Not Active”. The Ki result in data set [2] and in data set [5] was “Not Active” each time.

On to `CN(C)CCC=C1c2ccccc2CCc2ccccc21` [AMITRIPTYLINE], for which the concentration for half-maximal inhibition (IC50) entry (at Thromboxane-A synthase (platelet); in data set [1]; in data set [2]; against Cathepsin G; in data set [3]; in data set [4] (insect cells)) was “Not Active” throughout. For the same compound, the IC50 result against Cytochrome P450 2D6 is “Not Active”. The Ki entry (in data set [2]; at Cytochrome P450 2D6) was “Not Active” throughout.

For `CC(C)c1c(C(=O)Nc2ccccc2)c(-c2ccccc2)c(-c2ccc(F)cc2)n1CC[C@@H](O)C[C@@H](O)CC(=O)O` [ATORVASTATIN], the IC50 result (at Thromboxane-A synthase (platelet); in data set [1]; in data set [2]; on Cathepsin G; in data set [3]; in data set [4] (insect cells)) was “Not Active” each time. The Ki entry in data set [2] was “Not Active”.

`Cn1c(=O)c2c(ncn2C)n(C)c1=O` [CAFFEINE]: the IC50 result (against Thromboxane-A synthase (platelet); in data set [1]; in data set [2]; against Cathepsin G; in data set [3]; against Cytochrome P450 2D6) was “Not Active” each time. Also, the IC50 result in data set [5] is “Not Active”. Besides, the Ki result (in data set [2]; on Cytochrome P450 2D6; in data set [5]) was “Not Active” in each case.

As for `CN1CCN(C(c2ccccc2)c2ccccc2)CC1` [CYCLIZINE], the IC50 result (on Thromboxane-A synthase (platelet); in data set [1]; in data set [2]; at Cathepsin G; in data set [3]; in data set [4] (insect cells)) was “Not Active” throughout. Moreover, the IC50 entry in data set [5] was “Not Active”. Besides, the Ki entry in data set [2] and in data set [5] was “Not Active” in each case.

As for `C#C[C@]1(O)CC[C@H]2[C@@H]3CCC4=CC(=O)CC[C@]4(C)[C@H]3CC[C@@]21C` [ETHISTERONE], the IC50 entry (at Thromboxane-A synthase (platelet); in data set [1]; in data set [2]; at Cathepsin G; in data set [3]; in data set [4] (insect cells)) was “Not Active” in each case. In addition, on Cytochrome P450 2D6, the IC50 entry is listed as “Not Active”. Also, the Ki result (in data set [2]; on Cytochrome P450 2D6) was “Not Active” in each case.

For the compound `CC(C)(C(=O)O)c1ccc(C(O)CCCN2CCC(C(O)(c3ccccc3)c3ccccc3)CC2)cc1` (stereo unspecified) [FEXOFENADINE], the IC50 result (at Thromboxane-A synthase (platelet); in data set [1]; in data set [2]; on Cathepsin G; in data set [3]; in data set [4] (insect cells)) was “Not Active” in each case. For the same compound, the Ki result in data set [2] is listed as “Not Active”.

For the compound `CC(=O)OCC(=O)[C@@]12OC(C)(C)O[C@@H]1C[C@H]1[C@@H]3C[C@H](F)C4=CC(=O)C=C[C@]4(C)[C@@]3(F)[C@@H](O)C[C@@]12C` [FLUOCINONIDE], the IC50 result (at Thromboxane-A synthase (platelet); in data set [1]; in data set [2]; on Cathepsin G; in data set [3]; in data set [4] (insect cells)) was “Not Active” each time. In addition, the 50% inhibitory concentration (IC50) result in data set [5] is listed as “Not Active”. The Ki entry in data set [2] and in data set [5] was “Not Active” throughout.

With `O=c1c(-c2ccc(O)cc2)coc2cc(O)cc(O)c12` [GENISTEIN], the IC50 is 7.72 µM on Thromboxane-A synthase (read-out: IC50); “Not Active” in data set [1]; “Not Active” in data set [2]; “Not Active” on Cathepsin G; “Not Active” in data set [3]; “Not Active” on Cytochrome P450 2D6. Moreover, the IC50 entry in data set [5] is listed as “Not Active”. The Ki entry (in data set [2]; at Cytochrome P450 2D6; in data set [5]) was “Not Active” in each case.

Consider `N[C@@H](Cn1ccc(=O)c(O)c1)C(=O)O` [L-MIMOSINE], for which the IC50 result (on Thromboxane-A synthase (platelet); in data set [1]; in data set [2]; on Cathepsin G; in data set [3]; in data set [4] (insect cells)) was “Not Active” each time. Moreover, the IC50 result in data set [5] is on record as “Not Active”. Also, the Ki entry in data set [2] and in data set [5] was “Not Active” in each case.

In the case of `CCn1cc(C(=O)O)c(=O)c2cc(F)c(N3CCNC(C)C3)c(F)c21` (stereo unspecified) [LOMEFLOXACIN], the IC50 result (against Thromboxane-A synthase (platelet); in data set [1]; in data set [2]; against Cathepsin G; in data set [3]; in data set [4] (insect cells)) was “Not Active” each time. For the same compound, at Cytochrome P450 2D6, the IC50 entry is given as “Not Active”. The Ki entry (in data set [2]; at Cytochrome P450 2D6) was “Not Active” throughout.

As for `C[C@@H]1C/C=C/C=C/C=C/C=C/[C@H](O[C@@H]2O[C@H](C)[C@@H](O)[C@H](N)[C@@H]2O)C[C@@H]2O[C@](O)(C[C@@H](O)C[C@H]3O[C@@H]3/C=C/C(=O)O1)C[C@H](O)[C@H]2C(=O)O` [NATAMYCIN], the IC50 entry (against Thromboxane-A synthase (platelet); in data set [1]; in data set [2]; on Cathepsin G; in data set [3]; in data set [4] (insect cells)) was “Not Active” each time. Also, the IC50 entry in data set [5] was “Not Active”. For the same compound, the Ki result in data set [2] and in data set [5] was “Not Active” in each case.

In the case of `N=C(N)c1ccc(OCCCCCOc2ccc(C(=N)N)cc2)cc1` [PENTAMIDINE], the IC50 entry (on Thromboxane-A synthase (platelet); in data set [1]; in data set [2]; at Cathepsin G; in data set [3]; in data set [4] (insect cells)) was “Not Active” throughout. Also, the concentration for half-maximal inhibition (IC50) entry against Cytochrome P450 2D6 is on record as “Not Active”. The Ki entry (in data set [2]; at Cytochrome P450 2D6) was “Not Active” in each case.

For the compound `NNCCc1ccccc1` [PHENELZINE], the IC50 result (at Thromboxane-A synthase (platelet); in data set [1]; in data set [2]; on Cathepsin G; in data set [3]; in data set [4] (insect cells)) was “Not Active” each time. The IC50 result in data set [5] was “Not Active”. In addition, the Ki result in data set [2] and in data set [5] was “Not Active” throughout.

Consider `CC[C@]1(O)C[C@@H]2CN(CCc3c([nH]c4ccccc34)[C@@](C(=O)OC)(c3cc4c(cc3OC)N(C)[C@H]3[C@@](O)(C(N)=O)[C@H](O)[C@]5(CC)C=CCN6CC[C@]43[C@@H]65)C2)C1` [VINDESINE], for which the IC50 result (on Thromboxane-A synthase (platelet); in data set [1]; in data set [2]; against Cathepsin G; in data set [3]; in data set [4] (insect cells)) was “Not Active” in each case. Further, the half-inhibitory concentration (IC50) entry in data set [5] is given as “Not Active”. For the same compound, the Ki entry in data set [2] and in data set [5] was “Not Active” each time.

As a reminder, the IC50 is the concentration that gives 50% inhibition.
